In the supplement of paper PMC4862054:
Several values for one entry are separate records, joined by “and”; a condition that tells them apart may be missing. Equal entries are not always repeated.

Tests used:
Conditions in all cases: incubation time: 72 h
[1] = system: BT-549; assay: normalised viability (% of control), CellTiter-Blue; higher = more viable cells (100 = DMSO, 0 = benzethonium chloride kill control)
Protocol: (§1)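 DSRT, CellTiter-Blue viability, 72 h incubation. Signal is normalised to DMSO and benzethonium chloride controls. Value is the normalised response at dose 1.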

[2] = system: CAL-120; assay: as above
Protocol: as §1

[3] = system: CAL-148; assay: as above
Protocol: as §1

[4] = system: CAL-85-1; assay: as above
Protocol: as §1

[5] = system: DU-4475; assay: as above
Protocol: as §1

[6] = system: HCC1143; assay: as above
Protocol: as §1

[7] = system: HCC1599; assay: as above
Protocol: as §1

[8] = system: HCC1937; assay: as above
Protocol: as §1

[9] = system: HDQ-P1; assay: as above
Protocol: as §1

[10] = system: Hs578T; assay: as above
Protocol: as §1

[11] = system: MDA-MB-231; assay: as above
Protocol: as §1

[12] = system: MDA-MB-436; assay: as above
Protocol: as §1

[13] = system: MDA-MB-453; assay: as above
Protocol: as §1

[14] = system: MDA-MB-468; assay: as above
Protocol: as §1

[15] = system: MFM-223; assay: as above
Protocol: as §1

[16] = system: SK-BR-3; assay: as above
Protocol: as §1

[17] = system: BT-474; assay: drug sensitivity score (DSS), CellTiter-Glo (DSS (AUC-based score)); higher = stronger drug effect (viability inhibition or cytotoxicity); extreme values may be limits of the assay
In short: (§2)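 The drug sensitivity score reflects the area under a fitted dose-response curve. To obtain it, breast cancer cells in 20 µl suspension were seeded into 384-well plates containing compound at 5 concentrations, 10-fold apart over a compound-specific 10,000-fold range, and incubated 72 h. CellTox Green fluorescence (485/520 nm) was read first and CellTiter-Glo luminescence second, after 10 min at room temperature. Each plate was normalised to 0.1 % DMSO and a positive kill control.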

[18] = system: BT-549; assay: as above
In short: as §2

[19] = system: CAL-120; assay: as above
In short: as §2

[20] = system: CAL-148; assay: as above
In short: as §2

[21] = system: CAL-51; assay: as above
In short: as §2

[22] = system: CAL-85-1; assay: as above
In short: as §2

[23] = system: HCC1937; assay: as above
In short: as §2

[24] = system: Hs578T; assay: as above
In short: as §2

[25] = system: MDA-MB-231; assay: as above
In short: as §2

[26] = system: MDA-MB-468; assay: as above
In short: as §2

[27] = system: SK-BR-3; assay: as above
In short: as §2

SMILES | normalised viability ([1]; 1 nM) | normalised viability ([2]; 1 nM) | normalised viability ([3]; 1 nM) | normalised viability ([4]; 1 nM) | normalised viability ([5]; 1 nM) | normalised viability ([6]; 1 nM) | normalised viability ([7]; 1 nM) | normalised viability ([8]; 1 nM) | normalised viability ([9]; 1 nM) | normalised viability ([10]; 1 nM) | normalised viability ([11]; 1 nM) | normalised viability ([12]; 1 nM) | normalised viability ([13]; 1 nM) | normalised viability ([14]; 1 nM) | normalised viability ([15]; 1 nM) | normalised viability ([16]; 1 nM) | drug sensitivity score [17] | drug sensitivity score [18] | drug sensitivity score [19] | drug sensitivity score [20] | further results
C[C@H]1C[C@@H]2[C@H]([C@@H](O)C[C@@]3(C)[C@H]2CC[C@]3(O)C(=O)CO)[C@@]2(C)C=CC(=O)C=C12 [Methylprednisolone] | 93% | 81.9% | 105% | 84.6% | 95.4% | 93.3% | 114% | 83.7% | 97.7% | 122% | 103% | 108% | 95.4% | 101% | 92.7% | 92.2% | 0 | 0 | 6.14 | 0 | drug sensitivity score [21]: 0; drug sensitivity score [22]: 0; drug sensitivity score [23]: 0; drug sensitivity score [24]: 0; drug sensitivity score [25]: 0; drug sensitivity score [26]: 0; drug sensitivity score [27]: 0
C1CN1c1nc(N2CC2)nc(N2CC2)n1 [Triethylenemelamine] | 107% | 103% | 108% | 107% | 104% | 101% | 76.4% | 86.6% | 109% | 108% | 96.2% | 98.5% | 104% | 102% | 100% | 99% | – | – | – | – | –
CCCCC(=O)OCC(=O)[C@]1(O)Cc2c(O)c3c(c(O)c2[C@@H](O[C@H]2C[C@H](NC(=O)C(F)(F)F)[C@H](O)[C@H](C)O2)C1)C(=O)c1c(OC)cccc1C3=O [Valrubicin] | 107% | 92.9% | 88.8% | 83.5% | 93.9% | 86.5% | 75.7% | 81.6% | 96.8% | 103% | 79.7% | 106% | 97.6% | 84.3% | 90.3% | 85.5% | 3.82 | 9.05 | 0 | 13.8 | drug sensitivity score [21]: 16.8; drug sensitivity score [22]: 4.91; drug sensitivity score [23]: 4.28; drug sensitivity score [24]: 5.56; drug sensitivity score [25]: 3.05; drug sensitivity score [26]: 11.1; drug sensitivity score [27]: 12.4
CCc1cncnc1N1CCN(Cc2nc3ccc(C(F)(F)F)cc3[nH]2)CC1 | 98.2% | 111% | 114% | 99% | 93.2% | 103% | 82.6% | 86.6% | 106% | 106% | 96.8% | 106% | 101% | 109% | 103% | 88.8% | 0.467 | 1.94 | 0.0627 | 0 | drug sensitivity score [21]: 7.14; drug sensitivity score [22]: 0; drug sensitivity score [23]: 0; drug sensitivity score [24]: 0; drug sensitivity score [25]: 0; drug sensitivity score [26]: 2.68; drug sensitivity score [27]: 0
Nc1ncn([C@H]2C[C@H](O)[C@@H](CO)O2)c(=O)n1 [Decitabine] | 110% and 109% | 84.8% and 82.6% | – | 81.4% and 95.5% | 102% and 101% | 88.1% and 95.7% | 107% and 109% | 95.8% and 102% | 114% and 108% | 90.4% and 111% | 111% and 91.6% | 94.8% and 84.5% | 93% and 107% | 96.6% and 98.9% | 82.4% and 104% | 82% and 93.2% | 0.527 | 3.92 | 0.811 | 0 | drug sensitivity score [21]: 3.54; drug sensitivity score [22]: 0; drug sensitivity score [23]: 1.42; drug sensitivity score [24]: 0.0828; drug sensitivity score [25]: 0; drug sensitivity score [26]: 19; drug sensitivity score [27]: 0
CC[C@H](Nc1ncnc2[nH]cnc12)c1nc2cccc(F)c2c(=O)n1-c1ccccc1 [CAL-101] | 97.9% | 104% | 91.3% | 90% | 106% | 94% | 82.4% | 121% | 89.5% | 118% | 82.3% | 116% | 89.8% | 100% | 91.1% | 97.4% | – | – | – | – | –
C=CC(=O)N1CCC[C@@H](n2nc(-c3ccc(Oc4ccccc4)cc3)c3c(N)ncnc32)C1 | – | – | – | – | – | – | – | – | – | – | – | – | – | – | – | – | – | – | – | – | normalised viability ([1]; 0.1 nM): 118%; normalised viability ([2]; 0.1 nM): 81.3%; normalised viability ([3]; 0.1 nM): 102%; normalised viability ([4]; 0.1 nM): 86.1%; normalised viability ([5]; 0.1 nM): 94.8%; normalised viability ([6]; 0.1 nM): 88.1%; normalised viability ([7]; 0.1 nM): 105%; normalised viability ([8]; 0.1 nM): 93.3%; normalised viability ([9]; 0.1 nM): 105%; normalised viability ([10]; 0.1 nM): 119%; normalised viability ([11]; 0.1 nM): 101%; normalised viability ([12]; 0.1 nM): 91%; normalised viability ([13]; 0.1 nM): 103%; normalised viability ([14]; 0.1 nM): 103%; normalised viability ([15]; 0.1 nM): 99.8%; normalised viability ([16]; 0.1 nM): 90.7%
